The values that follow come from patent US20260265265A1, “NOVEL BENZIMIDAZOLONE DERIVATIVE COMPOUND AS AUTOTAXIN INHIBITOR” (LG CHEM, LTD., priority 2023, published 2026).

The experiment deals with T1, Recombinant Human ENPP-2/Autotaxin (Homo sapiens, UniProt Q13822).
T1 construct: purchased R&D systems 5255-EN
The experiment in a line: LysoPLD activity measurement (autotaxin enzyme inhibition, choline release, TOOS reagent). In kind it is biochemical. The note with it: LysoPLD inhibitory activity; substrate 14:0 LysoPC; absorbance at 555 nm. How it is done: Such a measurement method is a method of measuring the amount of choline, which is a reaction product in an autotaxin enzyme reaction, using a TOOS reagent. Depending on the activity of the autotaxin inhibitor, the amount of choline produced as a reaction product varies, which affects the final absorbance.
After 30 min, 14:0 LysoPC of the substrate diluted to a concentration of 300 μM with the enzyme reaction buffer solution was dispensed into each well by 50 μL and allowed to stand at 37° C. for 90 minutes. At this time, negative control wells were dispensed with 1% DMSO, substrate, and autotaxin instead of the compound, and positive control wells were dispensed with 1% DMSO and substrate.

Each structure is given as a SMILES string. A value given as a limit tells only on which side of the number the result lay.

Consider `O=C(O)c1cc(Cn2c(=O)n(-c3ccc(N4CCOCC4)cc3)c3c(F)c(Cl)ccc32)cc(F)c1F` [Example 202, 5-((5-chloro-4-fluoro-3-(4-morpholinophenyl)-2-oxo-2,3-dihydro-1H-benzo[d]imidazol-1-yl)methyl)-2,3-difluorobenzoic acid], for which the IC50 is 10 to 100 nM.

Consider `O=C(O)c1cccc(Cn2c(=O)n(-c3ccc(N4CCC(F)(F)CC4)cc3)c3cc(Cl)ccc32)c1` [Example 94, 3-((5-chloro-3-(4-(4,4-difluoropiperidin-1-yl)phenyl)-2-oxo-2,3-dihydro-1H-benzo[d]imidazol-1-yl)methyl)benzoic acid], for which the IC50 was 10 to 100 nM. As to `O=C(O)c1cccc(Cn2c(=O)n(-c3ccc(N4CCOCC4)cc3)c3c(F)c(Cl)ccc32)c1F` [Example 51, 3-((5-chloro-4-fluoro-3-(4-morpholinophenyl)-2-oxo-2,3-dihydro-1H-benzo[d]imidazol-1-yl)methyl)-2-fluorobenzoic acid], the IC50 is below 10 nM.

Consider `O=C(O)c1cccc(Cn2c(=O)n(-c3ccc(N4CCC(F)(F)CC4)nc3)c3cc(Cl)ccc32)c1` [Example 82, 3-((5-chloro-3-(6-(4,4-difluoropiperidin-1-yl)pyridin-3-yl)-2-oxo-2,3-dihydro-1H-benzo[d]imidazol-1-yl)methyl)benzoic acid], for which the IC50 lay within 10 to 100 nM. Consider `O=C(O)c1cccc(C2(n3c(=O)n(-c4ccc(C(=O)N5CCC(F)(F)CC5)cc4)c4cc(Cl)ccc43)CC2)c1F` [Example 133, 3-(1-(5-chloro-3-(4-(4,4-difluoropiperidine-1-carbonyl)phenyl)-2-oxo-2,3-dihydro-1H-benzo[d]imidazol-1-yl)cyclopropyl)-2-fluorobenzoic acid], for which the IC50 is below 10 nM.

In the case of `O=C(O)c1cccc(C2(n3c(=O)n(-c4ccc(S(=O)(=O)N5CCCC5)cc4)c4cc(Cl)ccc43)CC2)c1` [Example 215, 3-(1-(5-chloro-2-oxo-3-(4-(pyrrolidin-1-ylsulfonyl)phenyl)-2,3-dihydro-1H-benzo[d]imidazol-1-yl)cyclopropyl)benzoic acid], the IC50 was below 10 nM. As for `O=C(O)c1cccc(C2(n3c(=O)n(-c4ccc(C5CCOCC5)cc4)c4cc(Cl)ccc43)CCC2)c1` [Example 155, 3-(1-(5-chloro-2-oxo-3-(4-(tetrahydro-2H-pyran-4-yl)phenyl)-2,3-dihydro-1H-benzo[d]imidazol-1-yl)cyclobutyl)benzoic acid], the concentration for half-maximal inhibition (IC50) was 10 to 100 nM. With `CC1(C)COC(=O)N1c1ccc(-n2c(=O)n(C3(c4cccc(C(=O)O)c4)CC3)c3ccc(Cl)cc32)cc1` [Example 242, 3-(1-(5-chloro-3-(4-(4,4-dimethyl-2-oxooxazolidin-3-yl)phenyl)-2-oxo-2,3-dihydro-1H-benzo[d]imidazol-1-yl)cyclopropyl)benzoic acid], the IC50 is below 10 nM.

On to `CN1CCN(C(=O)c2ccc(-n3c(=O)n(Cc4cccc(C(=O)O)c4)c4ccc(Cl)cc43)cc2)CC1` [Example 60, 3-((5-chloro-3-(4-(4-methylpiperazine-1-carbonyl)phenyl)-2-oxo-2,3-dihydro-1H-benzo[d]imidazol-1-yl)methyl)benzoic acid], for which the IC50 is below 10 nM.

In the case of `CN(C)c1ccc(-n2c(=O)n(C3(c4cccc(C(=O)O)c4)CC3)c3ncc(Cl)cc32)cc1` [Example 221, 3-(1-(6-chloro-1-(4-(dimethylamino)phenyl)-2-oxo-1,2-dihydro-3H-imidazo[4,5-b]pyridin-3-yl)cyclopropyl)benzoic acid], the concentration for half-maximal inhibition (IC50) is below 10 nM. With `O=C(O)c1cccc(Cn2c(=O)n(-c3ccc4c(c3)OCO4)c3cc(Cl)ccc32)c1` [Example 9, 3-((3-(benzo[d][1,3]dioxol-5-yl)-5-chloro-2-oxo-2,3-dihydro-1H-benzo[d]imidazol-1-yl)methyl)benzoic acid] the figure was 100 to 1000 nM. With `O=C(O)c1cccc(Cn2c(=O)n(-c3ccc(C4CCN(C(=O)C5CCC5)CC4)cc3)c3cc(Cl)ccc32)c1` [Example 101, 3-((5-chloro-3-(4-(1-(cyclobutanecarbonyl)piperidin-4-yl)phenyl)-2-oxo-2,3-dihydro-1H-benzo[d]imidazol-1-yl)methyl)benzoic acid], the IC50 was in the range of 100 to 1000 nM.

Regarding `O=C(O)c1c(F)ccc(Cn2c(=O)n(-c3ccc(N4CCOCC4)cc3)c3cc(Cl)ccc32)c1F` [Example 205, 3-((5-chloro-3-(4-morpholinophenyl)-2-oxo-2,3-dihydro-1H-benzo[d]imidazol-1-yl)methyl)-2,6-difluorobenzoic acid], the IC50 is 10 to 100 nM.

With `CN1CCN(c2ccc(-n3c(=O)n(Cc4cccc(C(=O)O)c4)c4ccc(Cl)cc43)cn2)CC1` [Example 81, 3-((5-chloro-3-(6-(4-methylpiperazin-1-yl)pyridin-3-yl)-2-oxo-2,3-dihydro-1H-benzo[d]imidazol-1-yl)methyl)benzoic acid], the concentration for half-maximal inhibition (IC50) is 100 to 1000 nM. Take `O=C(O)c1cccc(C2(n3c(=O)n(-c4ccc(N5C(=O)OCC56CC6)cc4)c4cc(Cl)ccc43)CC2)c1` [Example 243, 3-(1-(5-chloro-2-oxo-3-(4-(5-oxo-6-oxa-4-azaspiro[2.4]heptan-4-yl)phenyl)-2,3-dihydro-1H-benzo[d]imidazol-1-yl)cyclopropyl)benzoic acid]: the half-maximal inhibitory concentration (IC50) is below 10 nM. For `O=C(O)c1cccc(Cn2c(=O)n(-c3cnn(CC4CCC4)c3)c3cc(Cl)ccc32)c1` [Example 91, 3-((5-chloro-3-(1-cyclobutylmethyl-1H-pyrazol-4-yl)-2-oxo-2,3-dihydro-1H-benzo[d]imidazol-1-yl)methyl)benzoic acid], the IC50 lay within 100 to 1000 nM. Turning to `CCCc1ccc(-n2c(=O)n(Cc3cccc(C(=O)O)c3)c3ccc(Cl)cc32)cc1` [Example 2, 3-((5-chloro-2-oxo-3-(4-propylphenyl)-2,3-dihydro-1H-benzo[d]imidazol-1-yl)methyl)benzoic acid], the IC50 was in the range of 100 to 1000 nM. With `O=C(O)c1cccc(C2(n3c(=O)n(-c4ccc(C5CCOCC5)cc4)c4cc(Cl)ccc43)CC2)c1` [Example 99, 3-(1-(5-chloro-2-oxo-3-(4-(tetrahydro-2H-pyran-4-yl)phenyl)-2,3-dihydro-1H-benzo[d]imidazol-1-yl)cyclopropyl)benzoic acid], the half-inhibitory concentration (IC50) is below 10 nM. Turning to `CN(C)C(=O)c1ccc(-n2c(=O)n(Cc3cccc(C(=O)O)c3)c3ccc(Cl)cc32)cc1` [Example 21, 3-((5-chloro-3-(4-(dimethylcarbamoyl)phenyl)-2-oxo-2,3-dihydro-1H-benzo[d]imidazol-1-yl)methyl)benzoic acid], the IC50 is below 10 nM.

For `O=C(O)c1cccc(C2(n3c(=O)n(-c4ccc(CC(=O)N5CCOCC5)cc4)c4cc(Cl)ccc43)CC2)c1` [Example 172, 3-(1-(5-chloro-3-(4-(2-morpholino-2-oxoethyl)phenyl)-2-oxo-2,3-dihydro-1H-benzo[d]imidazol-1-yl)cyclopropyl)benzoic acid], the IC50 lay in the range of 10 to 100 nM.

As to `CS(=O)(=O)Nc1ccc(-n2c(=O)n(Cc3cccc(C(=O)O)c3F)c3ccc(Cl)cc32)cc1` [Example 41, 3-((5-chloro-3-(4-(methylsulfonamido)phenyl)-2-oxo-2,3-dihydro-1H-benzo[d]imidazol-1-yl)methyl)-2-fluorobenzoic acid], the half-maximal inhibitory concentration (IC50) is 10 to 100 nM. In the case of `O=C(O)c1cccc(Cn2c(=O)n(-c3ccc(C(F)(F)F)cc3)c3cc(Cl)ccc32)c1` [Example 4, 3-((5-chloro-2-oxo-3-(4-(trifluoromethyl)phenyl)-2,3-dihydro-1H-benzo[d]imidazol-1-yl)methyl)benzoic acid], the IC50 fell in the range of 100 to 1000 nM. For the compound `O=C(O)c1cccc(C2(n3c(=O)n(-c4ccc(N5CCOCC5)cc4)c4cc(Cl)cnc43)CC2)c1F` [Example 230], the half-maximal inhibitory concentration (IC50) was in the range of 10 to 100 nM.

On to `O=C(O)c1cccc(C2(n3c(=O)n(-c4ccc(C(=O)N5CCCC5)cc4)c4cc(Cl)cnc43)CC2)c1F` [Example 231, 3-(1-(6-chloro-2-oxo-1-(4-(pyrrolidine-1-carbonyl)phenyl)-1,2-dihydro-3H-imidazo[4,5-b]pyridin-3-yl)cyclopropyl)-2-fluorobenzoic acid], for which the IC50 is below 10 nM.

For `O=C(O)c1cccc(C2(n3c(=O)n(-c4ccc(C(=O)N5CCCCC5)cc4)c4cc(Cl)ccc43)CC2)c1F` [Example 68, 3-(1-(5-chloro-2-oxo-3-(4-(piperidine-1-carbonyl)phenyl)-2,3-dihydro-1H-benzo[d]imidazol-1-yl)cyclopropyl)-2-fluorobenzoic acid], the IC50 is below 10 nM.

Turning to `CN(C)C(=O)c1ccc(-n2c(=O)n(C3(c4cccc(C(=O)O)c4F)CC3)c3ccc(Cl)cc32)cc1` [Example 72, 3-(1-(5-chloro-3-(4-(dimethylcarbamoyl)phenyl)-2-oxo-2,3-dihydro-1H-benzo[d]imidazol-1-yl)cyclopropyl)-2-fluorobenzoic acid], the IC50 is below 10 nM. In the case of `O=C(O)c1cccc(C2(n3c(=O)n(-c4ccc(N5CCC(F)(F)CC5)cc4)c4cc(Cl)ccc43)CC2)c1` [Example 160, 3-(1-(5-chloro-3-(4-(4,4-difluoropiperidin-1-yl)phenyl)-2-oxo-2,3-dihydro-1H-benzo[d]imidazol-1-yl)cyclopropyl)benzoic acid] it was below 10 nM; in that of `CN(C)C(=O)c1ccc(-n2c(=O)n(C3(c4cc(F)cc(C(=O)O)c4)CC3)c3ncc(Cl)cc32)cc1` [Example 272, 3-(1-(6-chloro-1-(4-(dimethylcarbamoyl)phenyl)-2-oxo-1,2-dihydro-3H-imidazo[4,5-b]pyridin-3-yl)cyclopropyl)-5-fluorobenzoic acid], below 10 nM. Consider `O=C(O)c1cccc(C2(n3c(=O)n(-c4ccc(C(=O)N5CCC(F)(F)C5)cc4)c4cc(Cl)ccc43)CC2)c1F` [Example 132, 3-(1-(5-chloro-3-(4-(3,3-difluoropyrrolidine-1-carbonyl)phenyl)-2-oxo-2,3-dihydro-1H-benzo[d]imidazol-1-yl)cyclopropyl)-2-fluorobenzoic acid], for which the IC50 is below 10 nM.
